Tested on: male and female Sprague–Dawley rats
Test: 90-day subchronic oral gavage toxicity study
Format: in vivo, rat
Design: key to NOEL, absolute liver weight increase / LOEL, absolute liver weight increase / NOEL, relative kidney weight increase / LOEL, relative kidney weight increase / NOEL, absolute kidney weight increase / LOEL, absolute kidney weight increase / NOEL, relative liver weight increase / LOEL, relative liver weight increase: NR: no response, no statistically significant dose-dependent changes
Description: Subchronic (90-day) studies were performed in accordance with current U.S. EPA’s Toxic Substances Control Act Good Laboratory Practice (GLP) Standards, with the following two general exceptions to the GLP guidelines: Analysis of the dose formulations was conducted according to RTI-approved Standard Operating Procedures, and corn oil (the vehicle) was not characterized (certificate of analysis from the vendor is available in the appendices to the final reports). Male and female Sprague–Dawley rats (five dose levels plus a control, n = 10/sex/dose group, corn oil vehicle dose volume of 3 mL/kg; oral gavage) were used in these studies, and the rats were euthanized on SD 91. The dose levels for PFHI were 0, 12.5, 25, 50, 100, and 200 mg/kg-day. The dose levels for MHFPK were 0, 18.8, 37.5, 75, 150, and 300 mg/kg-day. The dose levels for PFNAC were 0, 0.1, 0.3, 1.0, 3.0, and 10 mg/kg-day for male rats and 0, 0.3, 1.0, 3.0, 10, and 30 mg/kg-day for female rats. For CTFPA, the dose levels were 0, 1.9, 3.8. 7.5, 15, and 30 mg/kg-day for male rats and 0, 6.3, 12.5, 25, 50, and 100 mg/kg-day for female rats. For each PFAS, three batches of dosing solution were prepared. The time between the batch preparation of the dosing solutions ranged between 29 and 39 days. Blood samples were collected from all the rats at termination for serum chemistry, hematology, coagulation, and the analysis of the parent PFAS chemical in the plasma. In vivo data collection and further detail on the endpoints examined postmortem are described below.
The rats were observed twice daily for morbidity and mortality throughout the study period. At least once prior to randomization to test groups and weekly thereafter, the rats were physically examined, and bodyweights were obtained. Feed consumption was quantified weekly starting on SD 1.
Neurotoxicity was evaluated using the functional observational battery (FOB) and measuring locomotor activity (LMA) 2–4 h post dosing on SDs 78–80 and 80–84, respectively. For both the 14- and 90-day studies, an ophthalmologic examination was conducted prior to randomization and near the end of the study, using indirect ophthalmoscopy and slit–lamp biomicroscopy (as needed) after the administration of a mydriatic solution.
Hematology, biochemistry, and coagulation endpoints were measured at the termination of the study. A Siemens Advia 2120i hematology analyzer (Siemens Healthineers, Erlangen, Germany) was used to measure (or calculate) the parameters related to the complete blood count, leukocyte differential count, and reticulocyte count. The hematology parameters are listed and described in Table 2. The prothrombin time […] and activated partial thromboplastin time (APTT) were measured using an Instrumentation Laboratory (Bedford, MA, USA) ACL Elite Pro coagulation analyzer (laser–nephelometric centrifugal method).
At necropsy, the rats were visually examined for external abnormalities and organ weights (absolute and relative to the BW and brain weight), which were recorded (paired organs weighed together). The tissues were preserved in 10% neutral buffered formalin (NBF), except for the ocular tissues, testes, and epididymides, which were preserved in modified Davidson’s fixative and later transferred to 10% NBF. Bone marrow smears were prepared from the femurs, and the slides were air-dried, fixed in methanol, stained, and stored at room temperature for possible future evaluation. The preserved tissues were embedded in paraffin, sectioned, stained with hematoxylin and eosin, and examined by a board-certified veterinary pathologist.
Statistical analysis was performed using Provantis™ Version 10 or greater (Instem LSS, Limited; Stone, Staffordshire, UK). Differences among the treatment groups compared to the control were evaluated using one-way analysis of variance (ANOVA) if the underlying assumptions of a normal distribution (Shapiro–Wilk test) and the homogeneity of the variance (Levene’s test) were satisfied. […]

CC(=O)C(F)(F)C(F)(F)C(F)(F)F [MHFPK, Methyl heptafluoropropyl ketone]
MPV (female, 300 mg/kg-day): 9.01 ± 0.50 fL
PT (female, 300 mg/kg-day): 15.33 s
RBC (female, 300 mg/kg-day): 8.159±0.351 M/µL
Total BW change (female, 300 mg/kg-day): 95.70 g
Total Food Consumed (female, 300 mg/kg-day): 1575 g
LOEL, absolute kidney weight increase (male): NR
LOEL, absolute liver weight increase (male): NR
LOEL, relative kidney weight increase (male): NR
LOEL, relative liver weight increase (male): NR
NOEL, absolute kidney weight increase (male): NR
NOEL, absolute liver weight increase (male): NR
NOEL, relative kidney weight increase (male): NR
NOEL, relative liver weight increase (male): NR
% BW Gain (male, 18.8 mg/kg-day): 103.77%
% Diff, % BW Gain (male, 18.8 mg/kg-day): 6.06%
% Diff, Total BW change (male, 18.8 mg/kg-day): 2.29%
% Diff, Total Food Consumed (male, 18.8 mg/kg-day): -1.53%
A/G (male, 18.8 mg/kg-day): 0.85±0.03 ratio
ABNEUT (male, 18.8 mg/kg-day): 2.172±0.976 K/µL
ABRETi (male, 18.8 mg/kg-day): 179.08±30.61 10^9/L
ABSEOS (male, 18.8 mg/kg-day): 0.110±0.032 K/µL
ALB (male, 18.8 mg/kg-day): 3.17 ± 0.18 g/dL
ALPi (male, 18.8 mg/kg-day): 114.0±26.8 U/L
APTT (male, 18.8 mg/kg-day): 19.56 s
BUN (male, 18.8 mg/kg-day): 14.8 ± 1.4 mg/dL
CHOL (male, 18.8 mg/kg-day): 78.6 ± 12.0 mg/dL
GLOB (male, 18.8 mg/kg-day): 3.75 ± 0.18 g/dL
GLUC (male, 18.8 mg/kg-day): 187.8 ± 37.5 mg/dL
HCT (male, 18.8 mg/kg-day): 49.80±1.91%
HGB (male, 18.8 mg/kg-day): 15.51 ± 0.80 g/dL
Kidney Weight (male, 18.8 mg/kg-day): 3.11 g
Kidney/Body Weight (male, 18.8 mg/kg-day): 0.54%
Kidney/Brain Weight (male, 18.8 mg/kg-day): 144%
Liver Weight (male, 18.8 mg/kg-day): 14.06 g
Liver/Body Weight (male, 18.8 mg/kg-day): 2.41%
Liver/Brain Weight (male, 18.8 mg/kg-day): 649%
MPV (male, 18.8 mg/kg-day): 7.85 ± 0.72 fL
PT (male, 18.8 mg/kg-day): 15.63 s
RBC (male, 18.8 mg/kg-day): 8.891±0.355 M/µL
Total BW change (male, 18.8 mg/kg-day): 300.42 g
Total Food Consumed (male, 18.8 mg/kg-day): 2143 g
% BW Gain (male, 37.5 mg/kg-day): 101.81%
% Diff, % BW Gain (male, 37.5 mg/kg-day): 4.06%
% Diff, Total BW change (male, 37.5 mg/kg-day): 3.12%
% Diff, Total Food Consumed (male, 37.5 mg/kg-day): -2.01%
A/G (male, 37.5 mg/kg-day): 0.86±0.07 ratio
ABNEUT (male, 37.5 mg/kg-day): 1.859±0.620 K/µL
ABRETi (male, 37.5 mg/kg-day): 192.99±15.30 10^9/L
ABSEOS (male, 37.5 mg/kg-day): 0.179±0.069 K/µL
ALB (male, 37.5 mg/kg-day): 3.17 ± 0.15 g/dL
ALPi (male, 37.5 mg/kg-day): 117.7±20.1 U/L
APTT (male, 37.5 mg/kg-day): 18.03 s
BUN (male, 37.5 mg/kg-day): 16.3 ± 1.2 mg/dL
CHOL (male, 37.5 mg/kg-day): 75.9 ± 12.3 mg/dL
GLOB (male, 37.5 mg/kg-day): 3.69 ± 0.27 g/dL
GLUC (male, 37.5 mg/kg-day): 217.1 ± 33.5 mg/dL
HCT (male, 37.5 mg/kg-day): 49.12±1.32%
HGB (male, 37.5 mg/kg-day): 15.11 ± 0.46 g/dL
Kidney Weight (male, 37.5 mg/kg-day): 2.95 g
Kidney/Body Weight (male, 37.5 mg/kg-day): 0.50%
Kidney/Brain Weight (male, 37.5 mg/kg-day): 134%
Liver Weight (male, 37.5 mg/kg-day): 13.83 g
Liver/Body Weight (male, 37.5 mg/kg-day): 2.34%
Liver/Brain Weight (male, 37.5 mg/kg-day): 627%
MPV (male, 37.5 mg/kg-day): 8.18 ± 0.65 fL
PT (male, 37.5 mg/kg-day): 16.31 s
RBC (male, 37.5 mg/kg-day): 8.732±0.259 M/µL
Total BW change (male, 37.5 mg/kg-day): 302.87 g
Total Food Consumed (male, 37.5 mg/kg-day): 2133 g
% BW Gain (male, 75 mg/kg-day): 102.83%
% Diff, % BW Gain (male, 75 mg/kg-day): 5.10%
% Diff, Total BW change (male, 75 mg/kg-day): 5.10%
% Diff, Total Food Consumed (male, 75 mg/kg-day): 1.92%
A/G (male, 75 mg/kg-day): 0.86±0.06 ratio
ABNEUT (male, 75 mg/kg-day): 1.731±0.709 K/µL
ABRETi (male, 75 mg/kg-day): 194.58±21.06 10^9/L
ABSEOS (male, 75 mg/kg-day): 0.132±0.036 K/µL

— publication PMC12298827, “Subchronic Toxicities of Four Per- and Polyfluoroalkyl Substances (PFASs) by Oral Exposure in Sprague–Dawley Rats” (Toxics, 2025)
